Reference: the Kinase Knowledgebase extract (Sharma et al. 2016)
Values after ≈ are worked out from the molar mass of the structure shown. Values belong to the compound of their own block, whether it stands above or below them.

How the values were obtained:
EGFR (human) [1] = target: EGFR (human) (UniProt P00533)
MAPK14 [2] = target: MAPK14 (UniProt Q16539); test: Inhibition of MAPK14 Kinase Activity (Binding Assay)
MAPK14 [3] = target: MAPK14 (UniProt Q16539); test: Inhibition of MAPK14 Kinase Activity (Spectrophometric Assay)
EGFR (human) [4] = target: EGFR (human) (UniProt P00533); conditions: hn5
EGFR (murine) = EGFR (murine) (UniProt P00533); conditions: f/l-herc
EGFR [5] = target: EGFR (UniProt P00533)
EGFR [6] = target: EGFR (UniProt P00533); remark: listed apart in the source
CDK2 (human) [7] = target: CDK2 (human) (UniProt P24941); test: Enzyme Assay
CDK2 (human) [8] = target: CDK2 (human) (UniProt P24941); test: Enzyme Assay; remark: listed apart in the source
CDK2 [9] = target: CDK2 (UniProt P24941); test: Enzyme Assay
CDK2 [10] = target: CDK2 (UniProt P24941); test: Enzyme Assay; remark: listed apart in the source
MAPK14 [11] = target: MAPK14 (UniProt Q16539); test: MAPK Kinase Inhibition
EGFR (human) [12] = target: EGFR (human) (UniProt P00533); remark: listed apart in the source
MAPK14 [13] = target: MAPK14 (UniProt Q16539); test: CSBP binding - Inhibition of Prostaglandin H Synthase Type-1 Enzyme Assay
MAPK14 [14] = target: MAPK14 (UniProt Q16539); test: CSBP binding - Inhibition of RBL-1 5 Lipoxygenase Enzyme Assay
EGFR [15] = target: EGFR (UniProt P00533); conditions: balb/c 3t3
EGFR [16] = target: EGFR (UniProt P00533); remark: listed apart in the source
MAPK14 [17] = target: MAPK14 (UniProt Q16539); test: Inhibition of MAPK14 Kinase Activity
EGFR (mouse) = EGFR (mouse) (UniProt P00533); conditions: balb/mk
EGFR (human) [18] = target: EGFR (human) (UniProt P00533); conditions: a431
MAPK14 (human) [19] = target: MAPK14 (human) (UniProt Q16539); test: Inhibition of MAPK14 Kinase Activity
EGFR [20] = target: EGFR (UniProt P00533); remark: listed apart in the source
EGFR [21] = target: EGFR (UniProt P00533); remark: listed apart in the source
MAPK14 (human) [22] = target: MAPK14 (human) (UniProt Q16539); test: p38-alpha Kinase Inhibition; conditions: for activity: concentration not given here
ROCK2 (rat) = ROCK2 (rat) (UniProt Q62868); test: ROCK-II Kinase Inhibition; conditions: concentration not given here
EGFR (human) [23] = target: EGFR (human) (UniProt P00533); conditions: kb
EGFR (human) [24] = target: EGFR (human) (UniProt P00533); remark: listed apart in the source
EGFR (human) [25] = target: EGFR (human) (UniProt P00533); conditions: hn5; remark: listed apart in the source
MAPK14 [26] = target: MAPK14 (UniProt Q16539); test: Inhibition of TNF-alpha Production

Sequence of EGFR (human) (P00533 whole entry, looked up): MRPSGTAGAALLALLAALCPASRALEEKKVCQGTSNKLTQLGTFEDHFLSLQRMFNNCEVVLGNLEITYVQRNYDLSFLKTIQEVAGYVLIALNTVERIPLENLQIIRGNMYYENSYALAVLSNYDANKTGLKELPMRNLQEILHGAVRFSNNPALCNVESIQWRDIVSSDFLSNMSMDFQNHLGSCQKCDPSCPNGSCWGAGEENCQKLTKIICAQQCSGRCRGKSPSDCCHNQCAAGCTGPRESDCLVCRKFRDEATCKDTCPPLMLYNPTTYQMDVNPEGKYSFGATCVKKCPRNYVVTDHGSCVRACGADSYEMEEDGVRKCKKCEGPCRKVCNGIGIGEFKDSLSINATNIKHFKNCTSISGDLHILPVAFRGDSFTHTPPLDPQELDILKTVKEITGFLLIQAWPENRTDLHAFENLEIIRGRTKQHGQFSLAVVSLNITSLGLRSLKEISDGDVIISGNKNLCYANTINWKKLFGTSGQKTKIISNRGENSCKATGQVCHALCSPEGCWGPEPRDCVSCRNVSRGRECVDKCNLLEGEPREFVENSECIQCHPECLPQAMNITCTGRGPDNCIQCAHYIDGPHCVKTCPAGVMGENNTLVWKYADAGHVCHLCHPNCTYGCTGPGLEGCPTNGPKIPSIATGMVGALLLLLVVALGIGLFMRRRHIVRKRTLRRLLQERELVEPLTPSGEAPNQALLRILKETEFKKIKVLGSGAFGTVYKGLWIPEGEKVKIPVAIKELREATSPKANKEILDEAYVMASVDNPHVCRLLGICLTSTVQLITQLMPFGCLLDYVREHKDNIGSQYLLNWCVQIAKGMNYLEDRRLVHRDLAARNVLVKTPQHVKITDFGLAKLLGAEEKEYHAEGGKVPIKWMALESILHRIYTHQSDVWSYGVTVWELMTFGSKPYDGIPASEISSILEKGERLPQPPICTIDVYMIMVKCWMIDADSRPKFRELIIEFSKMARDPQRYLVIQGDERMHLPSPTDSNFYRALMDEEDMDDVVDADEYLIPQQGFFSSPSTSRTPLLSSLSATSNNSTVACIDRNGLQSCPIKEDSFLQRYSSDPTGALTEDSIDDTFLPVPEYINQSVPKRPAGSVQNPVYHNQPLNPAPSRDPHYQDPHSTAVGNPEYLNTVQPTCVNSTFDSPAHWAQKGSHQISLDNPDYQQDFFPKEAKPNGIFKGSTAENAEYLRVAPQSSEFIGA
Sequence of EGFR (P00533 whole entry, looked up): as above
Sequence of MAPK14 (Q16539 whole entry, looked up): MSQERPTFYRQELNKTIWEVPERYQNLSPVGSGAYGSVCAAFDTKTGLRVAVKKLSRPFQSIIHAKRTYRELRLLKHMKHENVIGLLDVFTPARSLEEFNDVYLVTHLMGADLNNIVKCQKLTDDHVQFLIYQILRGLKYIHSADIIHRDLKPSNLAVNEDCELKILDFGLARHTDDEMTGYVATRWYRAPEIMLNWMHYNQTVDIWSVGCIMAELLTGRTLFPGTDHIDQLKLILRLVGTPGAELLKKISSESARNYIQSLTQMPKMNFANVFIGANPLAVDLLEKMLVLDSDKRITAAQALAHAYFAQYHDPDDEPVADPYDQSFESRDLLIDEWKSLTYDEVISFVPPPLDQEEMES
Sequence of MAPK14 (human) (Q16539 whole entry, looked up): as above
Sequence of ROCK2 (rat) (Q62868 whole entry, looked up): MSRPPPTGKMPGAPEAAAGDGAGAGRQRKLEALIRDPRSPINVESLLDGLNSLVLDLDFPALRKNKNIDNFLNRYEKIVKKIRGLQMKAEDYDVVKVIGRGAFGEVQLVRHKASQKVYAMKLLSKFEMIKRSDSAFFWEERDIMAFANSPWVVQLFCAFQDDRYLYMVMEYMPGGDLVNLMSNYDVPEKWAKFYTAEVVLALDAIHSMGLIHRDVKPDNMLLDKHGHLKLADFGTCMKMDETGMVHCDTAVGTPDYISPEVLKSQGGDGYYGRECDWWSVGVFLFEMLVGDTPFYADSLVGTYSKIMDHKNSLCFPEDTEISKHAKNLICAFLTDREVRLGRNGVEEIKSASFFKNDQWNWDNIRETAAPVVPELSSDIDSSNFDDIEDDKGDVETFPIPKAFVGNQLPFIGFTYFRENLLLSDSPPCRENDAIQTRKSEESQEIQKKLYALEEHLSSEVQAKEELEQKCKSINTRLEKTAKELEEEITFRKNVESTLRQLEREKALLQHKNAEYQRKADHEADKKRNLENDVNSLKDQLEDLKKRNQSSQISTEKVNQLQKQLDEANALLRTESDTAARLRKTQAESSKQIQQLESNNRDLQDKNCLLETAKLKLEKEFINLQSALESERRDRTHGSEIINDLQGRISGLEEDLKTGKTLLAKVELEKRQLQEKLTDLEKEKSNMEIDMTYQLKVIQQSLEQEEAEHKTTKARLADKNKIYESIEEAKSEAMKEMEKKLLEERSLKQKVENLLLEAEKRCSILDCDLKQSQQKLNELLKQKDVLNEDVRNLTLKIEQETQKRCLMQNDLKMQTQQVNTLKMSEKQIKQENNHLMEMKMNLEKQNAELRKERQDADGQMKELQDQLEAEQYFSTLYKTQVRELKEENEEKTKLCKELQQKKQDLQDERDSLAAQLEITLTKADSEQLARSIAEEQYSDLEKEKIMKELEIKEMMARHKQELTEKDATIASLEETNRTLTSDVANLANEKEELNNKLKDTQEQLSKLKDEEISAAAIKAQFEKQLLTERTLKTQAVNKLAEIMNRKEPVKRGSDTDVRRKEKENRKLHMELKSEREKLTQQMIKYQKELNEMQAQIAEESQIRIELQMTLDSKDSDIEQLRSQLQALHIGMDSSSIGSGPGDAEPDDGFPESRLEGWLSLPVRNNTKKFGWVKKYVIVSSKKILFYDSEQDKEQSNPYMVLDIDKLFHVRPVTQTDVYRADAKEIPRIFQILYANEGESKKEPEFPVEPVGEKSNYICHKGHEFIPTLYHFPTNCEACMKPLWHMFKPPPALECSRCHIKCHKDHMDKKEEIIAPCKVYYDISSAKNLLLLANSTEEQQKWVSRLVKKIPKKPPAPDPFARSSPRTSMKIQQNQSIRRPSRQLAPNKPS

Compound: O=C(N(c1ncc2ncnc(Nc3ccc(F)c(Cl)c3)c2n1)C1CCNCC1)C(F)(F)F
IC50 (EGFR (murine)): > 20 µM

Compound: O=C1Nc2ccc(Cl)cc2/C1=C1/Nc2ccccc2C1=O
IC50 (CDK2 (human) [7]): 0.55 µM
IC50 (CDK2 (human) [8]): 0.75 µM
IC50 (CDK2 [9]): 0.75 µM
IC50 (CDK2 [10]): 0.55 µM

Compound: Cc1cc(C)c(C)c(-c2cc3cnc(N)nc3nc2NC(=O)NC(C)(C)C)c1C
IC50 (MAPK14 [11]): > 50 µM

Compound: Clc1ccc(-c2ncn(CCCN3CCOCC3)c2-c2ccncc2)cc1Cl
IC50 (MAPK14 [13]): > 100 µM
IC50 (MAPK14 [14]): > 100 µM

Compound: Brc1cccc(Nc2ncnc3c2C2CCCCC2N3)c1 (stereo not given)
IC50 (EGFR [15]): 0.5 µM

Compound: CCS(=O)(=O)c1ccc(OC)c(Nc2ncc(-c3cccc(-c4ccccc4F)c3)o2)c1
IC50 (EGFR [16]): > 10 µM
IC50 (MAPK14 [17]): > 10 µM

Compound: CC(C)(C)NC(=O)Nc1nc2nc(N)ncc2cc1-c1c(Cl)cccc1Cl
IC50 (MAPK14 [11]): 7.1 µM

Compound: O=C1/C(=C2\Nc3ccccc3C2=O)Nc2ccccc21
IC50 (CDK2 (human) [7]): > 1000 µM
IC50 (CDK2 (human) [8]): 70 µM
IC50 (CDK2 [9]): 70 µM
IC50 (CDK2 [10]): > 1000 µM

Compound: CNC(=O)C1(N(C)Cc2cc3c(Nc4cccc(Cl)c4F)ncnc3cc2OC)CCN(C)CC1
IC50 (EGFR (human) [23]): 0.036 µM

Compound: CS(=O)(=O)CCNCCCCOc1ccc2ncnc(Nc3ccc(F)c(Cl)c3)c2c1
IC50 (EGFR (human) [4]): 0.071 µM

Compound: CS(=O)(=O)CCNCc1nc(-c2ccc3ncnc(Nc4ccc(OCc5cccc(F)c5)c(Cl)c4)c3c2)cs1
IC50 (EGFR (human) [24]): < 0.1 µM
IC50 (EGFR (human) [25]): 0.08 µM

Compound: CN1CC2CCC1CC2Nc1cc2c(ccc(=O)n2-c2c(Cl)cccc2Cl)c(-c2ccccc2Cl)n1 (stereo not given)
IC50 (MAPK14 [26]): 0.024 µM
IC50 (MAPK14 [17]): 0.0004 µM

Compound: O=C1Nc2ccccc2/C1=C1/Nc2ccccc2C1=O
IC50 (CDK2 (human) [7]): 7.5 µM
IC50 (CDK2 (human) [8]): 2.2 µM
IC50 (CDK2 [9]): 2.2 µM
IC50 (CDK2 [10]): 7.5 µM

Second part, the compound after the results:

IC50 (EGFR (human) [1]): > 100 µM
Compound: Clc1cccc(Nc2cncc(-c3cncc(NCCCN4CCCCC4)c3)n2)c1

IC50 (MAPK14 [2]): 2.15 µM
IC50 (MAPK14 [3]): 0.953 µM
Compound: CC12CC(C(=O)O)CC(C)(C1)C(=O)N(Cc1cccc(-n3nc(C(C)(C)C)cc3NC(=O)Nc3cccc4ccccc34)c1)C2=O (stereo not given)

IC50 (EGFR (human) [4]): 0.045 µM
Compound: C#Cc1cccc(Nc2ncnc3ccc(OCCCCNCCS(C)(=O)=O)cc23)c1

IC50 (EGFR [5]): 1.37 µM
Compound: COc1ccc2ncnc(Nc3cccc(Br)c3)c2c1OC

IC50 (EGFR [6]): 0.11 µM
Compound: CN1CCC(Oc2cccc3ncnc(Nc4ccc(OCc5ccccn5)c(Cl)c4)c23)CC1

IC50 (EGFR (human) [12]): 3.2 µg/mL (≈ 4.76 µM)
Compound: COc1cc2ncc(C#N)c(Nc3ccc(Sc4nc(-c5ccccc5)cs4)c(Cl)c3)c2cc1C(C(N)=O)C(CN(C)C)N(C)C (stereo not given)

IC50 (EGFR [15]): 0.1 µM
Compound: Clc1cccc(Nc2ncnc3[nH]c4ccccc4c23)c1

IC50 (EGFR (mouse)): > 50 µM
Compound: Clc1cccc(Nc2ncnc3[nH]c(-c4ccccc4)c(-c4ccccc4)c23)c1

IC50 (MAPK14 [11]): > 50 µM
Compound: COc1cc(OC)cc(-c2cc3cnc(N)nc3nc2NC(=O)NC(C)(C)C)c1

IC50 (EGFR [5]): > 10 µM
Compound: COc1ccc2c(Nc3cccc(Br)c3)ncnc2c1OC

IC50 (EGFR (human) [18]): > 40 µM
IC50 (MAPK14 (human) [19]): > 40 µM
Compound: N#Cc1cnc2cnc(NCc3cccnc3)cc2c1NC1CCCCCC1

IC50 (EGFR [20]): 5.2 µM
Compound: COc1ccc(C#CC(C)(C)O)cc1-c1n[nH]c2nc(Nc3ccc(F)cc3F)ncc12

IC50 (EGFR (human) [18]): 0.03 µM
Compound: N#Cc1cnc2ccc(NCc3c[nH]cn3)cc2c1Nc1ccc(F)c(Cl)c1

IC50 (EGFR [21]): > 19.2 µM
IC50 (CDK2 [9]): 13.7 µM
Compound: CNC(=O)N1CCN(Cc2ccnc(Nc3ncc(C#N)s3)c2C)CC1

IC50 (EGFR (human) [1]): > 100 µM
Compound: Clc1cccc(Nc2cncc(-c3cncc(NCCCc4ccncc4)c3)n2)c1

activity (MAPK14 (human) [22]): 86%
activity (ROCK2 (rat)): 96%
Compound: COc1cc(OC)c(/C=C2/C(=O)Nc3ccccc32)c(OC)c1

IC50 (EGFR [15]): 0.3 µM
Compound: Clc1cccc(Nc2ncnc3c2C2CCCCC2N3)c1 (stereo not given)

IC50 (MAPK14 (human) [22]): 12 µM
activity (MAPK14 (human) [22]): 56%
activity (ROCK2 (rat)): 96%
Compound: NC(=O)c1ccc(-c2nc(-c3ccc4c(c3)OCCO4)c(-c3ccccn3)[nH]2)cc1
